Assay [1] has as its system methicillin-resistant S. aureus (MRSA). Put plainly: MIC against methicillin-resistant S. aureus. Format: cell-based. The settings on record: Staphylococcus aureus, TSB, 37° C., 24 hours. On the procedure:
(§1) Representative Procedure for Measuring MIC Values: A suspension is prepared of bacteria containing ˜10^6CFU (colony forming units)/mL from a culture incubated in TSB at 37° C. for 24 hours. Aliquots of 1 mL of the suspension are added to test tubes containing 1 mL TSB and incrementally varied concentrations of CSA compound. The samples are subjected to stationary incubation at 37° C. for 24 hours. Sample turbidity is determined by measuring absorption at 760 nm (HP 8453 UV-Visible Chemstation, Hewlett Packard). Additionally, an alliquot from each of the samples showing no measurable turbidity is subcultured on TSA plates (alliquots were diluted to provide fewer than 300 CFU). Colonies that grow on the subculture after overnight incubation are counted and the number of CFU/mL in the samples is calculated. The calculated values are compared to the number of CFU/mL in the original inoculum. MIC values are determined as the concentrations of the studied compounds at which the number of CFU/mL remained constant or decreased after incubation for 24 hours. CSA compounds were screened against methicillin-resistant S. aureus (MRSA) and tobramycin-resistant P. aeruginosa (TRPA).

In assay [2] the test system is tobramycin-resistant P. aeruginosa (TRPA). Briefly: MIC against tobramycin-resistant P. aeruginosa. Format: cell-based. Conditions: Pseudomonas aeruginosa; TSB, 37° C., 24 hours. The protocol: as §1
For the next assay, the system named is ectopic bone formation. Briefly: Mammalian ectopic bone formation model. It is filed as in vivo, mouse. The source says:
Bone formation was examined by XR (Faxitron) and quantified by microCT (Skyscan 1174). Bone nodules were also examined by histology.

The next assay concerns open fracture. Briefly: Mammalian open fracture model, without bacteria inoculation. It is filed as in vivo, rats. The text has this: (§2) In this model, infection was initiated by delivery of 10^4 CFU of pathogenic Staphlococcus aureus in ACS at the time of surgery. […] The primary outcome measure was the number of animals culled with infected fractures. Animal health and radiographic bone healing were monitored by an experienced veterinarian in a blinded fashion to inoculation or treatment. Animals diagnosed as having progressively deteriorating condition with XRs showing evidence of infection were culled and infection confirmed by culture swab post-mortem. Secondary outcome measures included union at 3 weeks and 6 weeks (excluding pin-slippage), and bone callus microCT measures at 6 weeks.

In a further assay the test system is Staphlococcus aureus. Put plainly: Mammalian open fracture model, inoculated with S. aureus. It is filed as in vivo, rats.
Description: as §2

≈ marks a conversion by molar mass, not a printed value.

As usually defined, the MIC is the least concentration at which growth counts as inhibited. Read a high MIC as a need for much substance. Regarding `CCCCCCCCN(CCCCCCCC)CCC[C@@H](C)[C@H]1CC[C@H]2[C@@H]3[C@H](OCCCN)C[C@@H]4C[C@H](OCCCN)CC[C@]4(C)[C@H]3C[C@H](OCCCN)[C@]12C` [CSA-91], the MIC in assay [1] amounted to 5 µg/mL (≈ 6.33 µM); in assay [2], 6 µg/mL (≈ 7.6 µM).

As for `CCCCCN(CCCCC)CCC[C@@H](C)[C@H]1CC[C@H]2[C@@H]3[C@H](OCCCN)C[C@@H]4C[C@H](OCCCN)CC[C@]4(C)[C@H]3C[C@H](OCCCN)[C@]12C` [CSA-90], the MIC in assay [1] worked out at 0.6 µg/mL (≈ 0.851 µM); in assay [2] it was 3 µg/mL (≈ 4.25 µM). The “Mean bone volume by microCT” value with ectopic bone formation (25 μg CSA-90 added to 10 μg rhBMP-2 in ACS, P=0.02) is “significantly increased”; with ectopic bone formation (250 μg CSA-90 added to 10 μg rhBMP-2 in ACS, P<0.01) it was “significantly increased”. The “Osteoclast number, histological assessment” value in the assay on ectopic bone formation (CSA-90 treatment) is recorded as “no significant decrease”. Moreover, in the assay with ectopic bone formation (rhBMP-2 treated groups, CSA-90 treatment alone (250 μg)), the “Histological assessment of bone nodules” value was “evidence of localized tissue mineralization”. Also, in the assay on open fracture (3 weeks, treated groups with and without inoculation), the “Union rate at 3 weeks” value is reported as roughly 50%. The “Union rate by 6 weeks” value with open fracture (6 weeks) is “increased but not to 100%”. For the same molecule, the entries for the “Pin Slip Cull Rate” value in the assay with open fracture (no bacteria) and in the assay on Staphlococcus aureus (10^4 cfu Staph) were 0% and 20%, respectively. In addition, the “Infected Cull Rate” value amounted to 0% in the assay with open fracture (no bacteria, 250 μg CSA-90 and/or 10 μg rhBMP-2 via ACS) and 0% with Staphlococcus aureus (10^4 cfu Staph, 250 μg CSA-90 and/or 10 μg rhBMP-2 via ACS). The “# Infected Culls” value is reported as 0/6 in the assay on open fracture (no bacteria, animals/group) and 0/5 in the assay on Staphlococcus aureus (10^4 cfu Staph, animals/group). The “# Pin Slips” value is on record as 0/6 in the assay with open fracture (no bacteria, animals/group) and 1/5 in the assay on Staphlococcus aureus (10^4 cfu Staph, animals/group). Further, in the assay with Staphlococcus aureus (inoculated group), the “Animals culled with a pin slip (no infection seen in culture)” value is listed as “one”. In addition, the “Animals culled with infected fractures” value in the assay on Staphlococcus aureus (inoculated with S. aureus) is reported as “no infected culls”.

Source of the values: patent US9931350B2, “Anti-infective and osteogenic compositions and methods of use” (BRIGHAM YOUNG UNIVERSITY, priority 2014, dated 2018).
